Assay results published in ChEMBL document CHEMBL1201862, “PubChem BioAssay data set” (2004).
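Tested at 5 concentrations; 48 h exposure; 96-well plates; endpoints linearly interpolated, else capped at highest concentration. Here, GI50 denotes the concentration required for 50% inhibition of growth.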 Activity calls are given as the source filed them. No stated cut-off is given here; in the data, active = GI50 up to about 1.1 µM and inactive = higher.

How the values were obtained:
Assay in all cases: DTP human tumour cell line panel, 48 h
SF-268 = test system: SF-268
OVCAR-5 = test system: OVCAR-5
SF-295 = test system: SF-295
HL-60 = test system: HL-60
OVCAR-3 = test system: OVCAR-3
SR = test system: SR
HCC 2998 = test system: HCC 2998
SK-MEL-28 = test system: SK-MEL-28
786-0 = test system: 786-0
PC-3 = test system: PC-3
A498 = test system: A498
NCI-H23 = test system: NCI-H23
MCF7 = test system: MCF7
OVCAR-4 = test system: OVCAR-4
RPMI-8226 = test system: RPMI-8226
NCI-H226 = test system: NCI-H226
RXF 393 = test system: RXF 393
Hs-578T = test system: Hs-578T
A549 = test system: A549
SNB-75 = test system: SNB-75
KM12 = test system: KM12
MDA-N = test system: MDA-N
IGROV-1 = test system: IGROV-1
NCI/ADR-RES = test system: NCI/ADR-RES
NCI-H460 = test system: NCI-H460
LOX IMVI = test system: LOX IMVI
SN12C = test system: SN12C
HOP-62 = test system: HOP-62
HCT-116 = test system: HCT-116
Malme-3M = test system: Malme-3M
HOP-92 = test system: HOP-92
T47D = test system: T47D
SK-OV-3 = test system: SK-OV-3
NCI-H522 = test system: NCI-H522
HCT-15 = test system: HCT-15
MDA-MB-231 = test system: MDA-MB-231
SK-MEL-5 = test system: SK-MEL-5
OVCAR-8 = test system: OVCAR-8
HT-29 = test system: HT-29
COLO 205 = test system: COLO 205
U-251 = test system: U-251
SW-620 = test system: SW-620
CAKI-1 = test system: CAKI-1
SK-MEL-2 = test system: SK-MEL-2
SNB-19 = test system: SNB-19
M14 = test system: M14
MDA-MB-435 = test system: MDA-MB-435
BT-549 = test system: BT-549
MOLT-4 = test system: MOLT-4
DU-145 = test system: DU-145
ACHN = test system: ACHN
UO-31 = test system: UO-31
UACC-257 = test system: UACC-257
UACC-62 = test system: UACC-62
TK-10 = test system: TK-10
SF-539 = test system: SF-539
CCRF-CEM = test system: CCRF-CEM
K562 = test system: K562
EKVX = test system: EKVX

## Cn1c(-c2ccccc2)cc2c3ccsc3c3ccsc3c21
SF-268
  GI50: > 100 µM (inactive)
OVCAR-5
  GI50: > 100 µM (inactive)
SF-295
  GI50: > 100 µM (inactive)
HL-60
  GI50: > 100 µM (inactive)
OVCAR-3
  GI50: > 100 µM (inactive)
SR
  GI50: 39.1 µM (inactive)
HCC 2998
  GI50: > 100 µM (inactive)
SK-MEL-28
  GI50: > 100 µM (inactive)
786-0
  GI50: 79.3 µM (inactive)
PC-3
  GI50: > 100 µM (inactive)
A498
  GI50: > 100 µM (inactive)
NCI-H23
  GI50: > 100 µM (inactive)
MCF7
  GI50: 4.75 µM (inactive)
OVCAR-4
  GI50: > 100 µM (inactive)
RPMI-8226
  GI50: > 100 µM (inactive)
NCI-H226
  GI50: > 100 µM (inactive)
RXF 393
  GI50: > 100 µM (inactive)
Hs-578T
  GI50: > 100 µM (inactive)
A549
  GI50: > 100 µM (inactive)
SNB-75
  GI50: > 100 µM (inactive)
KM12
  GI50: 16.1 µM (inactive)
MDA-N
  GI50: > 100 µM (inactive)
IGROV-1
  GI50: > 100 µM (inactive)
NCI/ADR-RES
  GI50: > 100 µM (inactive)
NCI-H460
  GI50: 53.1 µM (inactive)
LOX IMVI
  GI50: > 100 µM (inactive)
SN12C
  GI50: > 100 µM (inactive)
HOP-62
  GI50: > 100 µM (inactive)
HCT-116
  GI50: > 100 µM (inactive)
Malme-3M
  GI50: > 100 µM (inactive)
HOP-92
  GI50: > 100 µM (inactive)
T47D
  GI50: 6.03 µM (inactive)
SK-OV-3
  GI50: > 100 µM (inactive)
NCI-H522
  GI50: > 100 µM (inactive)
HCT-15
  GI50: 29.2 µM
MDA-MB-231
  GI50: > 100 µM (inactive)
SK-MEL-5
  GI50: > 100 µM (inactive)
OVCAR-8
  GI50: > 100 µM (inactive)
HT-29
  GI50: > 100 µM (inactive)
COLO 205
  GI50: > 100 µM (inactive)
U-251
  GI50: > 100 µM (inactive)
SW-620
  GI50: > 100 µM (inactive)
CAKI-1
  GI50: > 100 µM (inactive)
SK-MEL-2
  GI50: > 100 µM (inactive)
SNB-19
  GI50: > 100 µM (inactive)
M14
  GI50: > 100 µM (inactive)
MDA-MB-435
  GI50: > 100 µM (inactive)
BT-549
  GI50: > 100 µM (inactive)
MOLT-4
  GI50: 92.7 µM (inactive)
DU-145
  GI50: > 100 µM (inactive)
ACHN
  GI50: > 100 µM (inactive)
UO-31
  GI50: > 100 µM (inactive)
UACC-257
  GI50: > 100 µM (inactive)
UACC-62
  GI50: > 100 µM (inactive)
TK-10
  GI50: 21.3 µM (inactive)
SF-539
  GI50: > 100 µM (inactive)

## Cc1ccc(Cl)cc1/N=N/C(=O)NNc1cc(Cl)ccc1C
OVCAR-5
  GI50: 15.8 µM (inactive)
CCRF-CEM
  GI50: 10 µM (inactive)
SF-295
  GI50: 19.4 µM (inactive)
HL-60
  GI50: 58.9 µM (inactive)
OVCAR-3
  GI50: 14.7 µM (inactive)
SR
  GI50: 37.7 µM (inactive)
HCC 2998
  GI50: 40.4 µM (inactive)
SK-MEL-28
  GI50: 18 µM (inactive)
PC-3
  GI50: 10.1 µM (inactive)
A498
  GI50: 20.3 µM (inactive)
NCI-H23
  GI50: 19.4 µM (inactive)
MCF7
  GI50: 27.8 µM (inactive)
RPMI-8226
  GI50: 19.9 µM (inactive)
NCI-H226
  GI50: 20.1 µM (inactive)
RXF 393
  GI50: 21 µM (inactive)
Hs-578T
  GI50: 23.8 µM (inactive)
SNB-75
  GI50: 13.1 µM (inactive)
KM12
  GI50: 33.1 µM (inactive)
MDA-N
  GI50: 31.8 µM (inactive)
IGROV-1
  GI50: 15.3 µM (inactive)
NCI/ADR-RES
  GI50: 19.9 µM (inactive)
NCI-H460
  GI50: 18 µM (inactive)
SN12C
  GI50: 29.4 µM (inactive)
HOP-62
  GI50: 10.8 µM (inactive)
HCT-116
  GI50: 25.4 µM (inactive)
Malme-3M
  GI50: 24 µM (inactive)
HOP-92
  GI50: 15.5 µM (inactive)
K562
  GI50: 24.2 µM (inactive)
T47D
  GI50: 33.3 µM (inactive)
SK-OV-3
  GI50: 20.3 µM (inactive)
NCI-H522
  GI50: 13.1 µM (inactive)
HCT-15
  GI50: 17.1 µM
MDA-MB-231
  GI50: 16.8 µM (inactive)
SK-MEL-5
  GI50: 14.2 µM (inactive)
HT-29
  GI50: 26.9 µM (inactive)
COLO 205
  GI50: 21.9 µM (inactive)
U-251
  GI50: 19.7 µM (inactive)
CAKI-1
  GI50: 13.1 µM (inactive)
SK-MEL-2
  GI50: 13.9 µM (inactive)
SNB-19
  GI50: 19.4 µM (inactive)
M14
  GI50: 14.5 µM (inactive)
MDA-MB-435
  GI50: 25.2 µM (inactive)
BT-549
  GI50: 18.2 µM (inactive)
MOLT-4
  GI50: 13.9 µM (inactive)
DU-145
  GI50: 21.4 µM (inactive)
UO-31
  GI50: 14.1 µM (inactive)
UACC-62
  GI50: 11.2 µM (inactive)

## CCOC(=O)CN1C(=O)c2c(c(C)n(-c3ccccc3)c2C)C1=O
SF-268
  GI50: > 100 µM (inactive)
OVCAR-5
  GI50: > 100 µM (inactive)
CCRF-CEM
  GI50: > 100 µM (inactive)
SF-295
  GI50: > 100 µM (inactive)
HL-60
  GI50: > 100 µM (inactive)
OVCAR-3
  GI50: > 100 µM (inactive)
SR
  GI50: > 100 µM (inactive)
HCC 2998
  GI50: > 100 µM (inactive)
SK-MEL-28
  GI50: > 100 µM (inactive)
786-0
  GI50: > 100 µM (inactive)
PC-3
  GI50: > 100 µM (inactive)
A498
  GI50: > 100 µM (inactive)
NCI-H23
  GI50: > 100 µM (inactive)
MCF7
  GI50: > 100 µM (inactive)
OVCAR-4
  GI50: > 100 µM (inactive)
RPMI-8226
  GI50: > 100 µM (inactive)
NCI-H226
  GI50: > 100 µM (inactive)
RXF 393
  GI50: 26 µM (inactive)
Hs-578T
  GI50: > 100 µM (inactive)
A549
  GI50: > 100 µM (inactive)
SNB-75
  GI50: 82.8 µM (inactive)
KM12
  GI50: > 100 µM (inactive)
MDA-N
  GI50: > 100 µM (inactive)
IGROV-1
  GI50: > 100 µM (inactive)
NCI/ADR-RES
  GI50: > 100 µM (inactive)
NCI-H460
  GI50: > 100 µM (inactive)
SN12C
  GI50: > 100 µM (inactive)
HOP-62
  GI50: 36 µM (inactive)
HCT-116
  GI50: > 100 µM (inactive)
Malme-3M
  GI50: > 100 µM (inactive)
HOP-92
  GI50: > 100 µM (inactive)
K562
  GI50: > 100 µM (inactive)
T47D
  GI50: > 100 µM (inactive)
SK-OV-3
  GI50: > 100 µM (inactive)
NCI-H522
  GI50: > 100 µM (inactive)
HCT-15
  GI50: > 100 µM
MDA-MB-231
  GI50: > 100 µM (inactive)
SK-MEL-5
  GI50: > 100 µM (inactive)
OVCAR-8
  GI50: > 100 µM (inactive)
HT-29
  GI50: > 100 µM (inactive)
COLO 205
  GI50: > 100 µM (inactive)
U-251
  GI50: 73.5 µM (inactive)
SW-620
  GI50: > 100 µM (inactive)
CAKI-1
  GI50: > 100 µM (inactive)
SK-MEL-2
  GI50: > 100 µM (inactive)
SNB-19
  GI50: > 100 µM (inactive)
M14
  GI50: > 100 µM (inactive)
MDA-MB-435
  GI50: > 100 µM (inactive)
BT-549
  GI50: > 100 µM (inactive)
EKVX
  GI50: > 100 µM (inactive)
MOLT-4
  GI50: > 100 µM (inactive)
DU-145
  GI50: > 100 µM (inactive)
ACHN
  GI50: > 100 µM (inactive)
UO-31
  GI50: > 100 µM (inactive)
UACC-257
  GI50: > 100 µM (inactive)
UACC-62
  GI50: > 100 µM (inactive)
TK-10
  GI50: > 100 µM (inactive)
SF-539
  GI50: 91.2 µM (inactive)
